Where a name gives a salt, the structure may show the parent alone.
Biological target: T1, hP2X3 receptor (Homo sapiens, UniProt P56373)
T1 construct: expressed in transfected cells
T1 sequence (P56373 1-397): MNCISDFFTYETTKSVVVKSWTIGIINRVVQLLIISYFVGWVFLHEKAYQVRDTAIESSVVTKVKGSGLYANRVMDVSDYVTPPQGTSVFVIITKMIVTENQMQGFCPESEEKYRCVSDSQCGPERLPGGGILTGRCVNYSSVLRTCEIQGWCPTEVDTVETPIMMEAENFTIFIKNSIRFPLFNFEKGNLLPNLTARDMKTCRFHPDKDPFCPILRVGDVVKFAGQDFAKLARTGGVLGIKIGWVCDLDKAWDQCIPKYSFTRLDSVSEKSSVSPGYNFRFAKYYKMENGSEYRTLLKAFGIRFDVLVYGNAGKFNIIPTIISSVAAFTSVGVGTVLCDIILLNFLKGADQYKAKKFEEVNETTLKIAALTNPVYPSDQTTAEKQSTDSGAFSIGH
Assay: Antagonistic activity against hP2X3 receptor by FLIPR calcium flow assay
Assay type: cell-based
Conditions: for IC50: human cells stably transfected with hP2X3, agonist α,β-meATP 400 nM; for antagonistic activity against hP2X3 receptor compared with Reference compound 1 (in words): vs Reference compound 1
Procedure: The antagonistic activity of hP2X3 antagonists against hP2X3 receptor was evaluated by means of FLIPR Calcium 4 Assay Kit (Molecular Devices, R8141) and FLIPR TETRA instrument (Molecular Devices, 0296) by detecting calcium flow signals. 24h before the experiment, human cells, which had been stably transfected with hP2X3 receptors, were plated on a 384-well plate at 2×10^5 cells/mL, with 50 μL of cell suspension per well, and the plate was cultured in an incubator (37° C., 5% CO2) for 16 h to 24 h. The test compound solution (20 to 50 mM DMSO stock solution) with a concentration of 180 times the required concentration was prepared using DMSO. The stock solution was added to the 384-well plate at 500 nL per well, supplemented with 30 μL of FLIPR Assay buffer (1×HBSS+2 mM CaCl2 20 mM HEPES containing 1.26 mM Ca^2+). The 384-well plate was shaken for 20 to 40 min to mix evenly. An agonist (α, β-meATP) with a concentration of 3 times the required concentration (required final concentration was 400 nM) was prepared with FLIPR Assay buffer, and was added to another 384-well plate at 45 μL per well. The culture plate, on which the cells were plated one day ago, was taken, the cell supernatant was sucked and discarded, each well was added with 30 μL of Dye (FLIPR® Calcium 4 Assay Kit, diluted with FLIPR buffer), and then the plate was incubated for 1h. 15 μL of compound was added to each well of cells (using FLIPR sample injector). After 15 minutes, 22.5 μL of the agonist was added to each well, and the fluorescence signal (exciting light wavelength ranging from 470 nm to 495 nm, and emission wavelength ranging from 515 nm to 575 nm) was detect. […] An inhibition effect curve of the compound was fitted on the software GraphpadPrism6, and the IC50 value was calculated.

Structure (SMILES) | IC50 | antagonistic activity against hP2X3 receptor compared with Reference compound 1 (in words)
Cc1cnc(-c2cc(OCC3CC3)cc(C(=O)N[C@H](C)c3cnc(C(F)(F)F)nc3)c2F)s1 [Compound I-15, (R)-5-(cyclopropylmethoxy)-2-fluoro-3-(5-methylthiazol-2-yl)-N-(1-(2-(trifluoromethyl)pyrimidin-5-yl)ethyl)benzamide] | 1360 nM | –
Cc1cnc(-c2cc(OC[C@H]3CNCCO3)cc(C(=O)N[C@H](C)c3cnc(C(F)(F)F)nc3)c2F)s1 [Compound I-18, 2-fluoro-3-(5-methylthiazol-2-yl)-5-(((R)-morpholin-2-yl)methoxy)-N—((R)-1-(2-(trifluoromethyl)pyrimidin-5-yl)ethyl)benzamide hydrochloride] | 448 nM | –
Cc1cnc(-c2cc(OC3CCNCC3)cc(C(=O)N[C@H](C)c3cnc(C(F)(F)F)nc3)c2F)s1 [Compound I-17, (R)-2-fluoro-5-((1-piperidin-4-yl)oxy)-3-(5-methylthiazol-2-yl)-N-(1-(2-(trifluoromethyl)pyrimidin-5-yl)ethyl)benzamide] | 388 nM | –
Cc1cnc(-c2cc(OC3COC3)cc(C(=O)N[C@H](C)c3cnc(C(F)(F)F)nc3)c2F)s1 [Compound I-14, (R)-2-fluoro-3-(5-methylthiazol-2-yl)-5-(oxetane-3-yloxy)-N-(1-(2-(trifluoromethyl)pyrimidin-5-yl)ethyl)benzamide] | 99 nM | better antagonistic activity
Cc1cnc(-c2cc(O[C@@H]3CCOC3)c(F)c(C(=O)N[C@H](C)c3cnc(C(F)(F)F)nc3)c2)s1 [Compound I-2, 2-fluoro-5-(5-methylthiazol-2-yl)-3-(((R)-tetrahydrofuran-3-yl)oxy)-N—((R)-1-(2-(trifluoromethyl)pyrimidin-5-yl)ethyl)benzamide] | 298 nM | –
Cc1cnc(-c2cc(OC3CCN(C)CC3)cc(C(=O)N[C@H](C)c3cnc(C(F)(F)F)nc3)c2F)s1 [Compound I-16, (R)-2-fluoro-5-((1-methylpiperidin-4-yl)oxy)-3-(5-methylthiazol-2-yl)-N-(1-(2-(trifluoromethyl)pyrimidin-5-yl)ethyl)benzamide] | 433 nM | –

The remaining compounds from weak to strong by IC50, led by results:

IC50 | antagonistic activity against hP2X3 receptor compared with Reference compound 1 (in words) | Structure (SMILES)
373 nM | – | [2H]C([2H])([2H])N1CCO[C@@H](COc2cc(C(=O)N[C@H](C)c3cnc(C(F)(F)F)nc3)c(F)c(-c3ncc(C)s3)c2)C1 [Compound I-20, 2-fluoro-5-(((R)-4-(methyl-d3)morpholin-2-yl)methoxy)-3-(5-methylthiazol-2-yl)-N—((R)-1-(2-(trifluoromethyl)pyrimidin-5-yl)ethyl)benzamide]
305 nM | – | Cc1cnc(-c2cc(OC[C@@H]3COCCN3C)cc(C(=O)N[C@H](C)c3cnc(C(F)(F)F)nc3)c2F)s1 [Compound I-9, 2-fluoro-5-(((S)-4-methylmorpholin-3-yl)methoxy)-3-(5-methylthiazol-2-yl)-N—((R)-1-(2-(trifluoromethyl)pyrimidin-5-yl)ethyl)benzamide]
271 nM | – | CC(O)C(C)Oc1cc(C(=O)N[C@H](C)c2cnc(C(F)(F)F)nc2)c(F)c(-c2ncc(Cl)s2)c1 (stereo partly drawn) [Compound I-7, 3-(5-chlorothiazol-2-yl)-2-fluoro-5-((cis-3-hydroxybutan-2-yl)oxy)-N—((R)-1-(2-(trifluoromethyl)pyrimidin-5-yl)ethyl)benzamide]
168 nM | – | Cc1cnc(-c2cc(C(=O)N[C@H](C)c3cnc(C(F)(F)F)nc3)cc(O[C@@H]3CCOC3)c2F)s1 [Compound I-3, 4-fluoro-3-(5-methylthiazol-2-yl)-5-(((R)-tetrahydrofuran-3-yl)oxy)-N—((R)-1-(2-(trifluoromethyl)pyrimidin-5-yl)ethyl)benzamide]
63 nM | better antagonistic activity | Cc1cnc(-c2cc(OC(C)C(C)O)cc(C(=O)N[C@H](C)c3cnc(C(F)(F)F)nc3)c2F)s1 (single isomer, unassigned) [Compound I-4]

From US20230227445A1, “BENZAMIDE COMPOUND AND USE THEREOF” (HUMANWELL HEALTHCARE (GROUP) CO., LTD., priority 2020, published 2023)
